Measured values: US20060223996A1, “IL-12 modulatory compounds” (Synta Pharmaceuticals Corp., priority 2004, published 2006)

Tested on: IL-12
Test: Human in vitro assay: inhibition of IL-12 production in IFNγ/LPS- or IFNγ/SAC-stimulated human PBMC or THP-1 cells (ELISA)
Assay type: cell-based
Details: read-out: IC50 Range (representative in vitro IC50 data)
From the text: The biological activities of a heterocyclic compound can be evaluated by a number of cell-based assays. One of such assays can be conducted using cells from human peripheral blood mononuclear cells (PBMC) or human monocytic cell line (THP-1). The cells are stimulated with a combination of human interferon-γ (IFNγ) and lipopolysaccharide or a combination of IFNγ and Staphylococcus aureus Cowan I in the presence of a test compound. The level of inhibition of IL-12 production can be measured by determining the amount of p70 by using a sandwich ELISA assay with anti-human IL-12 antibodies. IC50 of the test compound can then be determined. Specifically, PBMC or THP-1 cells are incubated with the test compound. Cell viability was assessed using the bioreduction of MTS [3-(4,5-dimethylthiazol-2-yl)-5-(3-carboxymethoxyphenyl)-2-(4-sulfophenyl)-2H-tetrazolium](Promega, Madison, Wis.).
Human In Vitro Assay. Human PBMC were isolated by centrifugation using Ficoll-Paque (Pharmacia Biotech, Uppsala, Sweden) and prepared in RPMI medium supplemented with 10% fetal calf serum (FCS), 100 U/mL penicillin, and 100 μg/mL streptomycin. PBMC were plated in wells of a 96-well plate at a concentration of 5×10^5 cells/well, and primed by adding IFNγ (30 U/mL) for 22 h and stimulated by adding LPS (1 μg/mL), or by adding IFNγ (100 U/mL) and then stimulated by adding SAC (0.01%). A test pyrimidine compound was dissolved in DMSO, and added to wells of the 96-well plate. The final DMSO concentration was adjusted to 0.25% in all cultures, including the compound-free control. Human THP-1 cells were plated in wells, primed by adding IFNγ (100 U/mL) for 22 h and stimulated by adding SAC (0.025%) in the presence of different concentrations of the pyrimidine compound. Cell-free supernatants were taken 18 h later for measurement of cytokines. Cell viability was assessed using the bioreduction of MTS. Cell survival was estimated by determining the ratio of the absorbance in compound-treated groups versus compound-free control.
The supernatant was assayed for the amount of IL-12p40, IL-12p70, or IL-10 by using a sandwich ELISA with anti-human antibodies, i.e., a Human IL-12 p40 ELISA kit from R&D Systems (Berkeley, Calif.), and a Human IL-12 p70 or IL-10 ELISA kit from Endogen (Cambridge, Mass.). Assays were based on the manufacturer's instructions.
The biological activities of pyrimidine compounds were tested on human PBMC or THP-1 cells.

| Compound | IC50 [nM] |
| --- | --- |
| CCN(CC)C(=O)COc1cc(C(=O)Nc2ccc3[nH]c(C)c(C)c3c2)nc(N2CCOCC2)n1 [Compound 256, 6-(2-(diethylamino)-2-oxoethoxy)-N-(2,3-dimethyl-1H-indol-5-yl)-2-morpholinopyrimidine-4-carboxamide] | < 1000 |
| Cc1ccc(NNC(=O)c2cc(N3CCOCC3)nc(OCCN3CCOCC3)n2)cc1C [Compound 81, 6-Morpholin-4-yl-2-(2-morpholin-4-yl-ethoxy)-pyrimidine-4-carboxylic acid N′-(3,4-dimethyl-phenyl)-hydrazide] | < 1000 |
| Cc1cccc(C(=O)Nc2nc(OCCc3ccccn3)cc(N3CCOCC3)n2)c1 [Compound 75, 3-Methyl-N-[4-morpholin-4-yl-6-(2-pyridin-2-yl-ethoxy)-pyrimidin-2-yl]-benzamide] | ≥ 1000 |
| COCCN(C)c1cc(C(=O)Nc2cc(-c3ccc(Cl)cc3)nn2C)nc(N2CCOCC2)n1 [Compound 227, 6-[(2-Methoxy-ethyl)-methyl-amino]-2-morpholin-4-yl-pyrimidine-4-carboxylic acid [5-(4-chloro-phenyl)-2-methyl-2H-pyrazol-3-yl]-amide] | ≥ 1000 |
| NC(=O)c1cccc(NC(=O)c2cc(N3CCOCC3)nc(N3CCOCC3)n2)c1 [Compound 52, 2,6-Di-morpholin-4-yl-pyrimidine-4-carboxylic acid (3-carbamoyl-phenyl)-amide] | ≥ 1000 |
| O=C(Nc1ccc2ccccc2c1)c1cc(OCCc2ccccn2)nc(N2CCOCC2)n1 [Compound 37, 2-Morpholin-4-yl-6-(2-pyridin-2-yl-ethoxy)-pyrimidine-4-carboxylic acid naphthalen-2-ylamide] | ≥ 1000 |
| COCCN(C)c1cc(C(=O)Nc2ccc3cnn(C)c3c2)nc(N2CCOCC2)n1 [Compound 217, 6-((2-methoxyethyl)(methyl)amino)-N-(1-methyl-1H-indazol-6-yl)-2-morpholinopyrimidine-4-carboxamide] | ≥ 1000 |
| CCc1c(C)[nH]c2ccc(NC(=O)c3cc(N4CCC(C(N)=O)CC4)nc(N4CCOCC4)n3)cc12 [Compound 183, 6-(4-Carbamoyl-piperidin-1-yl)-2-morpholin-4-yl-pyrimidine-4-carboxylic acid (3-ethyl-2-methyl-1H-indol-5-yl)-amide] | < 1000 |
| CCN(CC)C(=O)Nc1cccc(NC(=O)c2cc(OCCN3CCOCC3)nc(N3CCOCC3)n2)c1 [Compound 198, N-(3-(3,3-diethylureido)phenyl)-2-morpholino-6-(2-morpholinoethoxy)pyrimidine-4-carboxamide] | ≥ 1000 |
| Cc1ccc(NC(=O)c2cc(N3CCOCC3)nc(N3CCOCC3)n2)cc1C [Compound 51, 2,6-Di-morpholin-4-yl-pyrimidine-4-carboxylic acid (3,4-dimethyl-phenyl)-amide] | < 1000 |
| Cc1ccc(NC(=S)Nc2cc(N3CCOCC3)nc(OCCN3CCOCC3)n2)cc1 [Compound 12, 1-[6-Morpholin-4-yl-2-(2-morpholin-4-yl-ethoxy)-pyrimidin-4-yl]-3-p-tolyl-thiourea] | ≥ 1000 |
| Cc1[nH]c2ccc(NC(=O)c3cc(N(C)CCO)nc(N4CCOCC4)n3)cc2c1C [Compound 189, N-(2,3-dimethyl-1H-indol-5-yl)-6-((2-hydroxyethyl)(methyl)amino)-2-morpholinopyrimidine-4-carboxamide] | < 1000 |
| Cc1cccc(NNC(=O)c2cc(N3CCOCC3)nc(OCCc3ccccn3)n2)c1 [Compound 78, 6-Morpholin-4-yl-2-(2-pyridin-2-yl-ethoxy)-pyrimidine-4-carboxylic acid N′-m-tolyl-hydrazide] | < 1000 |

Results, then the molecule that gave them:

| IC50 [nM] | Compound |
| --- | --- |
| < 1000 | CN(CCO)c1cc(C(=O)Nc2cccc(-n3cccn3)c2)nc(N2CCOCC2)n1 [Compound 315, 6-[(2-Hydroxy-ethyl)-methyl-amino]-2-morpholin-4-yl-pyrimidine-4-carboxylic acid (3-pyrazol-1-yl-phenyl)-amide] |
| ≥ 1000 | COCCN(C)c1cc(C(=O)Nc2cc(C)on2)nc(N2CCOCC2)n1 [Compound 237, 6-[(2-Methoxy-ethyl)-methyl-amino]-2-morpholin-4-yl-pyrimidine-4-carboxylic acid (5-methyl-isoxazol-3-yl)-amide] |
| ≥ 1000 | CN1C(=O)c2ccc(NC(=O)c3cc(OCCN4CCOCC4)nc(N4CCOCC4)n3)cc2C1=O [Compound 274, 2-Morpholin-4-yl-6-(2-morpholin-4-yl-ethoxy)-pyrimidine-4-carboxylic acid (2-methyl-1,3-dioxo-2,3-dihydro-1H-isoindol-5-yl)-amide] |
| < 1000 | O=C(Nc1cccc(Cl)c1)Nc1cc(OCCN2CCOCC2)nc(N2CCOCC2)n1 [Compound 126, 1-(3-Chloro-phenyl)-3-[2-morpholin-4-yl-6-(2-morpholin-4-yl-ethoxy)-pyrimidin-4-yl]-urea] |
| ≥ 1000 | Cc1nccc(-c2cccc(NC(=O)c3cc(OCCN4CCOCC4)nc(N4CCOCC4)n3)c2)n1 [Compound 170, 2-Morpholin-4-yl-6-(2-morpholin-4-yl-ethoxy)-pyrimidine-4-carboxylic acid [3-(2-methyl-pyrimidin-4-yl)-phenyl]-amide] |
| < 1000 | CNc1cccc(NC(=O)c2cc(OCCN3CCOCC3)nc(N3CCOCC3)n2)c1 [Compound 280, 2-Morpholin-4-yl-6-(2-morpholin-4-yl-ethoxy)-pyrimidine-4-carboxylic acid (3-methylamino-phenyl)-amide] |
| < 1000 | COCCN(C)c1cc(NC(=O)Nc2ccc3[nH]c(C)c(C)c3c2)nc(N2CCOCC2)n1 [Compound 265, 1-(2,3-dimethyl-1H-indol-5-yl)-3-(6-((2-methoxyethyl)(methyl)amino)-2-morpholinopyrimidin-4-yl)urea] |
| < 1000 | Cc1[nH]c2ccc(NC(=O)c3cc(OCC(C)(C)O)nc(N4CCOCC4)n3)cc2c1C [Compound 314, 6-(2-Hydroxy-2-methyl-propoxy)-2-morpholin-4-yl-pyrimidine-4-carboxylic acid (2,3-dimethyl-1H-indol-5-yl)-amide] |
| ≥ 1000 | O=C(Nc1ccc(Cl)c(Cl)c1)Nc1cc(N2CCOCC2)nc(OCCN2CCOCC2)n1 [Compound 119, 1-(3,4-Dichloro-phenyl)-3-[6-morpholin-4-yl-2-(2-morpholin-4-yl-ethoxy)-pyrimidin-4-yl]-urea] |
| ≥ 1000 | Cc1cccc(N(C)C(=O)Nc2cc(N3CCOCC3)nc(OCCc3ccccn3)n2)c1 [Compound 69, 1-Methyl-3-[6-morpholin-4-yl-2-(2-pyridin-2-yl-ethoxy)-pyrimidin-4-yl]-1-m-tolyl-urea] |
| ≥ 1000 | Cc1[nH]c2ccc(NC(=O)c3cc(N4CCOCC4)nc(OCCc4ccccn4)n3)cc2c1C [Compound 63, 6-Morpholin-4-yl-2-(2-pyridin-2-yl-ethoxy)-pyrimidine-4-carboxylic acid (2,3-dimethyl-1H-indol-5-yl)-amide] |
| < 1000 | CN(CCO)c1cc(NC(=O)Nc2ccc3[nH]c4c(c3c2)CCCC4)nc(N2CCOCC2)n1 [Compound 326, 1-{6-[(2-Hydroxy-ethyl)-methyl-amino]-2-morpholin-4-yl-pyrimidin-4-yl}-3-(6,7,8,9-tetrahydro-5H-carbazol-3-yl)-urea] |
| < 1000 | CCc1c(C)[nH]c2ccc(NC(=O)Nc3cc(C)nc(N4CCOCC4)n3)cc12 [Compound 267, 1-(3-ethyl-2-methyl-1H-indol-5-yl)-3-(6-methyl-2-morpholinopyrimidin-4-yl)urea] |
